Data on two compounds can be found in ChEMBL document CHEMBL5696442, “Discovery of type II inhibitors of TGFβ-activated kinase 1 (TAK1) and mitogen-activated protein kinase kinase kinase kinase 2 (MAP4K2)” (J Med Chem, 2015).

Assay [1] concerns the target Proto-oncogene tyrosine-protein kinase ROS (Homo sapiens) (UniProt P08922). In words: Inhibition of ROS1 (unknown origin) at 1 uM by Ambit Kinomescan binding assay relative to control.
Assay [2] has as its target T1, Serine/threonine-protein kinase TAO1 (Homo sapiens) (UniProt Q7L7X3).
T1 sequence (whole entry): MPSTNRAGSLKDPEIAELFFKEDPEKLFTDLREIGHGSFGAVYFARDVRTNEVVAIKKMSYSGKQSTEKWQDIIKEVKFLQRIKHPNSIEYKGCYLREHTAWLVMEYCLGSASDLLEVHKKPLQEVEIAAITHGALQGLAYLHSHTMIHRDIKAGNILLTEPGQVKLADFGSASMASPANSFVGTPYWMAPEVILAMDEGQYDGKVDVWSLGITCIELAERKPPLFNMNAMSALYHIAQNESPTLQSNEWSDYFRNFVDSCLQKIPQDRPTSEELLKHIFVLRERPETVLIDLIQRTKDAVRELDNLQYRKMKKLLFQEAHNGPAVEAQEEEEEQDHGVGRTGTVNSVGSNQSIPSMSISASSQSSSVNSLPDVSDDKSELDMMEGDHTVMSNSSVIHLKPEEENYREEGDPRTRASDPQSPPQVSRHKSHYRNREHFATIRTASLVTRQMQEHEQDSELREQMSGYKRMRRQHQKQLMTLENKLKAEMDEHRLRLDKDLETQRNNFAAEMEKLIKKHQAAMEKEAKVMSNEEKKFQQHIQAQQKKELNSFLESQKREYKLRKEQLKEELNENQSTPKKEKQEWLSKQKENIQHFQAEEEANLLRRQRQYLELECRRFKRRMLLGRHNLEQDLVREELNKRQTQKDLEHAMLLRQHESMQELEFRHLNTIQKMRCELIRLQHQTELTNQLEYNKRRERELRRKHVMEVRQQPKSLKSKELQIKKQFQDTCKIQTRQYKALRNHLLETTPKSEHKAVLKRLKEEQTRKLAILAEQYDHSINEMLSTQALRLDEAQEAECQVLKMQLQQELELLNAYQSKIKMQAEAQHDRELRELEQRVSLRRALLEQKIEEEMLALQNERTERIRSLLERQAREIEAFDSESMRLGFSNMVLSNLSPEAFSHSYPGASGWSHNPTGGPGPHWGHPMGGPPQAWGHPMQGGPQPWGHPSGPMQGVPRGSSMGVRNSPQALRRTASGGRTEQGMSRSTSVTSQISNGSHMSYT
In words: Inhibition of TAOK1 (unknown origin) at 1 uM by Ambit Kinomescan binding assay relative to control.

In assay [3] the target is TRAF2 and NCK-interacting protein kinase (Homo sapiens) (UniProt Q9UKE5). The assay can be described thus: Inhibition of TNIK (unknown origin) at 1 uM by Ambit Kinomescan binding assay relative to control.
The target of assay [4] is Serine/threonine-protein kinase BRSK2 (Homo sapiens) (UniProt Q8IWQ3). In words: Inhibition of BRSK2 (unknown origin) at 10 uM by Ambit Kinomescan binding assay.
Assay [5] concerns the target Ephrin type-A receptor 4 (Homo sapiens) (UniProt P54764). The assay can be described thus: Inhibition of EPHA4 (unknown origin) at 10 uM by Ambit Kinomescan binding assay relative to control.
For assay [6], the target named is T2, Serine/threonine-protein kinase LATS2 (Homo sapiens) (UniProt Q9NRM7).
T2 sequence (whole entry): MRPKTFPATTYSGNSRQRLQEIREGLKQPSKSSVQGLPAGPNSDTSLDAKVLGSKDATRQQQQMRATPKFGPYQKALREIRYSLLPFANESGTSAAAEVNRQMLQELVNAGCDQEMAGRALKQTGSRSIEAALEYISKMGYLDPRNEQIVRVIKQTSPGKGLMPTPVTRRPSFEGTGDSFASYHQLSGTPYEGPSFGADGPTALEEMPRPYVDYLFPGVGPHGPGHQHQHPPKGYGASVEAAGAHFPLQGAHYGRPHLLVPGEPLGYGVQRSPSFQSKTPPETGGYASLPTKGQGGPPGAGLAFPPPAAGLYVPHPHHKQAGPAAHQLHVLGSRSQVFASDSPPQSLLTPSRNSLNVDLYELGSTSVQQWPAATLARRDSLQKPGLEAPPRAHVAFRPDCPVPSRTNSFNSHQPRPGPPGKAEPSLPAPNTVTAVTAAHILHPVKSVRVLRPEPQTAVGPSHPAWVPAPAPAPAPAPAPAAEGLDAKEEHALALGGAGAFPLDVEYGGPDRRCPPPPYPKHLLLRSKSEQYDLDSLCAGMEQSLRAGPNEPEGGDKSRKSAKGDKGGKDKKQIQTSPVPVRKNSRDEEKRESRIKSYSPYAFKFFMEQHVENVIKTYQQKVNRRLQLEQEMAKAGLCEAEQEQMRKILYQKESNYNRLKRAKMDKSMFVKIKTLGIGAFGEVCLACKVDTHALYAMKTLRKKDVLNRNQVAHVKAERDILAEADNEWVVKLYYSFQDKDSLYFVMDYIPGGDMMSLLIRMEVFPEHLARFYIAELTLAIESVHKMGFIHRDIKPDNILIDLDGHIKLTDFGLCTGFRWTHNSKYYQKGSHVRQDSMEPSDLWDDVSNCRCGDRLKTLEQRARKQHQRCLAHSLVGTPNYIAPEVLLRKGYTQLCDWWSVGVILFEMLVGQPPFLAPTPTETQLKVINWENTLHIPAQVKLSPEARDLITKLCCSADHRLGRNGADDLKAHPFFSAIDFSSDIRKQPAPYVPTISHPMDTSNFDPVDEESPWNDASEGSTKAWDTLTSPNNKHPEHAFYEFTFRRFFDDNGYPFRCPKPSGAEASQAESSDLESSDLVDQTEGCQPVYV
In words: Inhibition of LATS2 (unknown origin) at 10 uM by Ambit Kinomescan binding assay relative to control.

In assay [7] the target is Mitogen-activated protein kinase kinase kinase 9 (Homo sapiens) (UniProt P80192). The assay can be described thus: Inhibition of MLK1 (unknown origin) at 10 uM by Ambit Kinomescan binding assay.
For assay [8], the target named is Dual specificity testis-specific protein kinase 1 (Homo sapiens) (UniProt Q15569). In words: Inhibition of TESK1 (unknown origin) at 10 uM by Ambit Kinomescan binding assay.

The source made the active and inactive calls. The rule behind the calls is not given here.

Sequence of Proto-oncogene tyrosine-protein kinase ROS (Homo sapiens) (P08922 whole entry): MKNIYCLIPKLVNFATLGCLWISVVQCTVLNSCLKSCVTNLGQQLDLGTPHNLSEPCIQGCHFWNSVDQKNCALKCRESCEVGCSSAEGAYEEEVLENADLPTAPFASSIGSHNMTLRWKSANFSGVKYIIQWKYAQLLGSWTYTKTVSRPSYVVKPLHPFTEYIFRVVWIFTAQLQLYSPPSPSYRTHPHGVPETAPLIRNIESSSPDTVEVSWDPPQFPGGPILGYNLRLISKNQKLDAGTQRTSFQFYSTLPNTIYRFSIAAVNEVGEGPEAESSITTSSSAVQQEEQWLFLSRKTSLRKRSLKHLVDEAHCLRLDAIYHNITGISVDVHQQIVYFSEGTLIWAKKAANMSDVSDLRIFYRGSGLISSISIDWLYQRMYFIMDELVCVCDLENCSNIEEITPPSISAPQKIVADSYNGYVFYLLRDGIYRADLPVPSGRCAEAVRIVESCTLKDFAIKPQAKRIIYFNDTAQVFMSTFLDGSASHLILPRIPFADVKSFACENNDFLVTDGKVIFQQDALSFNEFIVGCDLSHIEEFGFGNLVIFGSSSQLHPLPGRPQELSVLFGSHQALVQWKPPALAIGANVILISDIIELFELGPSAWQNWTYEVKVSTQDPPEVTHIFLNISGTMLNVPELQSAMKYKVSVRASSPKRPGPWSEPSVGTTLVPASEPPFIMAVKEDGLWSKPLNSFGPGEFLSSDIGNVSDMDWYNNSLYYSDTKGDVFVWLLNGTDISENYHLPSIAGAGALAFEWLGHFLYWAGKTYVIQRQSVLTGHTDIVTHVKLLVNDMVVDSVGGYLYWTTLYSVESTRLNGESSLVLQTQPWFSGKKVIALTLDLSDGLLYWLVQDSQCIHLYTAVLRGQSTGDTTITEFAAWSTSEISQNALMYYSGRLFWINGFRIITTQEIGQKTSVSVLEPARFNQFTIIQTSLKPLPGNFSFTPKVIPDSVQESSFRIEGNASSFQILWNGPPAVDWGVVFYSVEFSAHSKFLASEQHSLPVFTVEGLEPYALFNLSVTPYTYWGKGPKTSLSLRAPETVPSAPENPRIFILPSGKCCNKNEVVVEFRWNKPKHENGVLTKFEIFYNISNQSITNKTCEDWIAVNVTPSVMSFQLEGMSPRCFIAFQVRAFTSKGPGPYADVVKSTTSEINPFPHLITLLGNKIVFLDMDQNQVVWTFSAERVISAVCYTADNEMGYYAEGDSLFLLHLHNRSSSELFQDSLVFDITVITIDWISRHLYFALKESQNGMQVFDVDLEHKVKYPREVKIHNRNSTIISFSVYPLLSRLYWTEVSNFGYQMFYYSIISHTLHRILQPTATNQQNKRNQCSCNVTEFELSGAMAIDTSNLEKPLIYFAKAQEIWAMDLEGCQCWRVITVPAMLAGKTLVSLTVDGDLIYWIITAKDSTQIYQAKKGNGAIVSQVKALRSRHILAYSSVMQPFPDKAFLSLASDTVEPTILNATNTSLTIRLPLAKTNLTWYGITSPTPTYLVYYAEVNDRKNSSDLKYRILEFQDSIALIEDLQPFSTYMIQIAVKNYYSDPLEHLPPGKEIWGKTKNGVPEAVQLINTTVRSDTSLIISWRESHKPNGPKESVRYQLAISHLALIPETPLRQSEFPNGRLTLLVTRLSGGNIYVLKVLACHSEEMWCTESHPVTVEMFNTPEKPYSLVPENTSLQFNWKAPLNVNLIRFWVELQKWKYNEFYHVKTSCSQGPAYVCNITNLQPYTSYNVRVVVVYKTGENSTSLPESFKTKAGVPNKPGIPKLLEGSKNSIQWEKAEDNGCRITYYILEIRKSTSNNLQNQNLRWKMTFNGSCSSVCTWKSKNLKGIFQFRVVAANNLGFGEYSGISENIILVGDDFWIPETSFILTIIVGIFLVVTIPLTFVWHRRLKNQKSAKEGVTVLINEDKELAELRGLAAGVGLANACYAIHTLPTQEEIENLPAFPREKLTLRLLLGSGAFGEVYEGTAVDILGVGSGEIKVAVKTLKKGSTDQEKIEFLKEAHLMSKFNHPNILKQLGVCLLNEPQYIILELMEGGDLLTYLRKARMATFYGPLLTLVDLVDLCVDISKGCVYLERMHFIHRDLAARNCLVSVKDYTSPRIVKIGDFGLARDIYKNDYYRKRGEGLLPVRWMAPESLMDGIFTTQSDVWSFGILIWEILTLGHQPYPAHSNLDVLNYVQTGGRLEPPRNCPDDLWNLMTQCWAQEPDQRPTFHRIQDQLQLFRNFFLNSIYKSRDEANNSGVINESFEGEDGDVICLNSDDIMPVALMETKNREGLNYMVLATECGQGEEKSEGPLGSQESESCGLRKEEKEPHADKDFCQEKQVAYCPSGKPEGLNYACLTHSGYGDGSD
Sequence of Dual specificity testis-specific protein kinase 1 (Homo sapiens) (Q15569 whole entry, looked up): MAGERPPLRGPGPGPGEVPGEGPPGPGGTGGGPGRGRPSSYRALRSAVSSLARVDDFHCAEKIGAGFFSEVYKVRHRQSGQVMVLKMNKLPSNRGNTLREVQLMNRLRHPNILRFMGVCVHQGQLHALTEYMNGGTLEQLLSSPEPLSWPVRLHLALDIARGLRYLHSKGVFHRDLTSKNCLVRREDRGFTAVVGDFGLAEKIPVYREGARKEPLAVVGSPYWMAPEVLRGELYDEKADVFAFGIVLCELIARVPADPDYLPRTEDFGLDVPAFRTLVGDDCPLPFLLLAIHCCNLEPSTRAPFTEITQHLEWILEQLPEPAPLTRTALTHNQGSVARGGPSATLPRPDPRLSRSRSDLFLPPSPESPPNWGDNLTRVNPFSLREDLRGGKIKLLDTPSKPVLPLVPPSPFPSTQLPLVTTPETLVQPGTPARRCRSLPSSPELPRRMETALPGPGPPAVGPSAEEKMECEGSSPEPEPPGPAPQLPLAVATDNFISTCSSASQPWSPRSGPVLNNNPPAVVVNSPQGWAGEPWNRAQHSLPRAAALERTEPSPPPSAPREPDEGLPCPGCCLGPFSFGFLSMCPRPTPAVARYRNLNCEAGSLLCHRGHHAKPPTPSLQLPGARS
Sequence of TRAF2 and NCK-interacting protein kinase (Homo sapiens) (Q9UKE5 whole entry, looked up): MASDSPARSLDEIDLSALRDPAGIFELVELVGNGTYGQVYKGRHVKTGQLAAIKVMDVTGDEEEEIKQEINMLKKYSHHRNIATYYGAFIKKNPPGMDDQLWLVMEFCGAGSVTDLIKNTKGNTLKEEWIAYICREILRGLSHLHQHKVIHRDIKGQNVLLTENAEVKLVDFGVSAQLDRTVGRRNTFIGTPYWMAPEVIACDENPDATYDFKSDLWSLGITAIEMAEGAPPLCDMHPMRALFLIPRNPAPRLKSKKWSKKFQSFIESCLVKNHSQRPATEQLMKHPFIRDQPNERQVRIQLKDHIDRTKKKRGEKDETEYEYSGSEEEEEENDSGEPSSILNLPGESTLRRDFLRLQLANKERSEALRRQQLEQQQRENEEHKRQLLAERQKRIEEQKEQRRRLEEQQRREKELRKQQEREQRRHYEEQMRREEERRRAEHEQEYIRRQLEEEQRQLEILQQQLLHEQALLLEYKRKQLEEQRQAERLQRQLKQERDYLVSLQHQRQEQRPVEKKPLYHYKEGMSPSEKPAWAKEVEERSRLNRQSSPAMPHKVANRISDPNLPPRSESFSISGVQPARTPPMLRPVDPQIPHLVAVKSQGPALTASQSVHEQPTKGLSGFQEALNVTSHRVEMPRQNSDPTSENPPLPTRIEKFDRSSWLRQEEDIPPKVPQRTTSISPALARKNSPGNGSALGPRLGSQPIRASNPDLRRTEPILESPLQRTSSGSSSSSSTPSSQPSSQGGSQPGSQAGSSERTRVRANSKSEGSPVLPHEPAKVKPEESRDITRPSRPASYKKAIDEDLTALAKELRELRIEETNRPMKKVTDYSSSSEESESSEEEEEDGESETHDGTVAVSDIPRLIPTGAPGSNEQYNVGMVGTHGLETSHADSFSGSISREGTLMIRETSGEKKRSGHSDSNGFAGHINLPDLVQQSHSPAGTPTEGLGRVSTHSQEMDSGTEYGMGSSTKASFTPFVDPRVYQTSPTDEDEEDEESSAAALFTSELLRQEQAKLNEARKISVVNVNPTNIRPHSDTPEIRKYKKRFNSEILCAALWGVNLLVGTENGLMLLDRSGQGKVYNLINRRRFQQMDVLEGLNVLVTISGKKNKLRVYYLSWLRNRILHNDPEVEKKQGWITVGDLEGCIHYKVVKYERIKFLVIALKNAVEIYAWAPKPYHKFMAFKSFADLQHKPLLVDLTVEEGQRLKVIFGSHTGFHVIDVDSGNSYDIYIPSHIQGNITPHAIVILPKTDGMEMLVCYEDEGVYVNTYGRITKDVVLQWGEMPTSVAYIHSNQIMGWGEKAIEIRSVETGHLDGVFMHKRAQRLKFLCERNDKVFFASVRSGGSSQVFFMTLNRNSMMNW
Sequence of Serine/threonine-protein kinase BRSK2 (Homo sapiens) (Q8IWQ3 whole entry): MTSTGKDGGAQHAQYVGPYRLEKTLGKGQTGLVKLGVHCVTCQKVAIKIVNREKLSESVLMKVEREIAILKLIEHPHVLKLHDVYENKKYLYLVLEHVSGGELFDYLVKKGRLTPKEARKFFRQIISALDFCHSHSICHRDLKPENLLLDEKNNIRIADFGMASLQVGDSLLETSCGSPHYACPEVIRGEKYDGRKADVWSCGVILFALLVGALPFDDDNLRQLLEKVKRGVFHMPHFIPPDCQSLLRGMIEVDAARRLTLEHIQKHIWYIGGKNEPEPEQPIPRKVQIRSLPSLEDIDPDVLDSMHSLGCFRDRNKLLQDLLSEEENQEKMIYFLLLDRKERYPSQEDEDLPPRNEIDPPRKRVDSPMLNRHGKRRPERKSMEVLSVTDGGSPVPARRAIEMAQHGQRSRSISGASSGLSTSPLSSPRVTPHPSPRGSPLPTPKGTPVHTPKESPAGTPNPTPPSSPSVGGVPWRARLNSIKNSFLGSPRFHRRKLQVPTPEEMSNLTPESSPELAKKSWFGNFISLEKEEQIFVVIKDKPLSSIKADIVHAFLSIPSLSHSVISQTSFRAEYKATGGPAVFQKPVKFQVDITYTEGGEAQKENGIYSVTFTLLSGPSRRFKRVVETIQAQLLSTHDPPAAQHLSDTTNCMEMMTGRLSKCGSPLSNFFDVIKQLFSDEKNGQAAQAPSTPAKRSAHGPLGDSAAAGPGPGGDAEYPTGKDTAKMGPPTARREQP

As for `CCN1CCN(Cc2ccc(NC(=O)c3ccc(C)c(/C=C/c4cnc5[nH]ccc5c4OC)c3)cc2C(F)(F)F)CC1`, the inhibition in assay [1] was 100%; in assay [2], 22%; in assay [3] it was 14%.

With `CCN1CCN(Cc2ccc(NC(=O)c3ccc(C)c(Oc4ccnc5[nH]ccc45)c3)cc2C(F)(F)F)CC1`, the inhibition result in assay [4], in assay [7] and in assay [8] was “inactive” each time. Moreover, the inhibition in assay [5] stood at 5.8%; in assay [6] it was 13%.

Usually inhibition stands for how much of the control response was suppressed.
